Test results taken from publication PMC11873939, “Target Identification with Live-Cell Photoaffinity Labeling and Mechanism of Action Elucidation of ARN23765, a Highly Potent CFTR Corrector” (Journal of Medicinal Chemistry, 2025).

Assays:
F508del/R1070W-CFTR [1] = biological target: T1, F508del/R1070W-CFTR (Homo sapiens, UniProt P13569, DEL508-508/R1070W); assay: FLIPR membrane potential assay of CFTR channel activity in transfected HEK293 cells; format: cell-based; conditions: HEK293, 24 h; ARN23765 10 nM, VX-661 3 μM
T1 construct: CFTR identification in pull-down studies and analysis of full-length CFTR in protein maturation assays; expressed in transfected cells; host or cells: HEK293 (transient)
T1 sequence (P13569 with tags, fused parts or gaps DEL508-508/R1070W): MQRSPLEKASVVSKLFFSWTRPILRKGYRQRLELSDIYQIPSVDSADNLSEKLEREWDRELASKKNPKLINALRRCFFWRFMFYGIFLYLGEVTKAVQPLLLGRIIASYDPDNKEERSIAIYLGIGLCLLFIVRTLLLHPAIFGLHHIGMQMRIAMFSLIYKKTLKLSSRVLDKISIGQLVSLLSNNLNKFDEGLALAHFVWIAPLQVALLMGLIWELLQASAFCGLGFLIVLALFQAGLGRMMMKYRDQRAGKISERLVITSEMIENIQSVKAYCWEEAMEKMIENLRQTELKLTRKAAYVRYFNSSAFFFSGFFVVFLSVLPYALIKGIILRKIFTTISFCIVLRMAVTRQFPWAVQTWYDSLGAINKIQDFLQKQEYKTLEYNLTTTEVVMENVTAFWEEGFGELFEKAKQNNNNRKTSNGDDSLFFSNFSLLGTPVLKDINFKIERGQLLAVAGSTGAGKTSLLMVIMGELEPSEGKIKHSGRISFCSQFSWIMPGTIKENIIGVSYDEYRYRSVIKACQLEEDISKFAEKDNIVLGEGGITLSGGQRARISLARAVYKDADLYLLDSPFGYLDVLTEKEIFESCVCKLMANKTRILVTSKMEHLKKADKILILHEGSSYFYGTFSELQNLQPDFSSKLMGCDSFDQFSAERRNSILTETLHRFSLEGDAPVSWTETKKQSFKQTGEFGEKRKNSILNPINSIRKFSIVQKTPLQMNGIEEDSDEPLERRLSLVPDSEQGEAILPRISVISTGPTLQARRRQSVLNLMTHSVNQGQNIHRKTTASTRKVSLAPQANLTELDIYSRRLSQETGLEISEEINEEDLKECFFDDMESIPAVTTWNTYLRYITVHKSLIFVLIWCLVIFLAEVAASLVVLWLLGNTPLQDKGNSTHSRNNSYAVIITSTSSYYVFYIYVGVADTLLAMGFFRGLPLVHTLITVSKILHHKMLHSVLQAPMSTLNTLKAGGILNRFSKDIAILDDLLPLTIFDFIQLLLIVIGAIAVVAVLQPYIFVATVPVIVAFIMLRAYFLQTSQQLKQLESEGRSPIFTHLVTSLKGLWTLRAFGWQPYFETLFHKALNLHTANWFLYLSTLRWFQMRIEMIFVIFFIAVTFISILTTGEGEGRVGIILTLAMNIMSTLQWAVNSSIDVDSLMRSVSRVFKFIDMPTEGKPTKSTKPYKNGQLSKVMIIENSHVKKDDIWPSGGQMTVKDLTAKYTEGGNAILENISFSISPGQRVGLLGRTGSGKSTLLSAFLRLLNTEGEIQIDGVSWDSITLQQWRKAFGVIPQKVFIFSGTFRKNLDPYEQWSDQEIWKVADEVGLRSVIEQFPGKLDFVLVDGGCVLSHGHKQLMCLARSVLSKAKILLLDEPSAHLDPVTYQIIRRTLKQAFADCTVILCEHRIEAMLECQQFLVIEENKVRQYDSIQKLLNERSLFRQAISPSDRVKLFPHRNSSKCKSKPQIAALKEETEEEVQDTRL
Method: HS-YFP-based assay for CFTR activity
Twenty-four hours after seeding on 96-well plates, CFBE41o- cells stably over-expressing F508del-CFTR and the HS-YFP were treated with test compounds at different concentrations in the 3 nM-10 µM range.1 Cells treated with vehicle alone (DMSO) and with ARN23765, respectively, served as negative and positive controls. The following day, cells were washed with PBS containing (in mM) 137 NaCl, 2.7 KCl, 8.1 Na2HPO4, 1.5 KH2PO4, 1.0 CaCl2, and 0.5 MgCl2. Cells were then incubated for 25 min with […] of PBS plus forskolin (20 µM) and VX-770 (1 µM) to maximally stimulate F508del-CFTR. Cells were then transferred to a microplate reader (FluoStar Galaxy; BMG Labtech, Offenburg, Germany) for CFTR activity determination. The plate reader was equipped with high-quality excitation (HQ500/20X: 500 ± 10 nm) and emission (HQ535/30M: 535 ± 15 nm) filters for YFP (Chroma Technology). Each assay comprised a continuous 14 s fluorescence reading, 2 s before and 12 s after injection of […] of an iodide-containing solution (PBS with Cl- replaced by I-; final I- concentration […]). Data were normalized to the initial background-subtracted fluorescence. […]
Cell lysates or eluates from pull-down experiments were resolved by SDS-PAGE on 4-8 % tris-acetate gels (EA0378BOX, Life technologies) and were transferred into PVDF membranes (Immobilion-E IEVH00005, Millipore). […] Images were acquired with Chemidoc MP (BIO-RAD laboratories) and quantified with Image J software.
CFTR Channel function analysis by fluorometric imaging plate reader functional (FLIPR) assay FLIPR assay was performed as previously described.3 Briefly, HEK293 cells were seeded in 96-well plates (black, flat bottom, Corning) and transfected with mutated CFTR constructs. […]
µM) for 24 h at 30 °C or 37 °C. […] The plate was then read in a fluorescence plate reader (SpectraMax i3, Molecular Devices) at 37 °C (excitation: 530 nm, emission: 560 nm). […] CFTR-mediated depolarization was detected as an increase in fluorescence. […] The peak changes in fluorescence were normalized to fluorescence immediately […]

F508del/R1070W-CFTR [2] = biological target: T1, F508del/R1070W-CFTR; assay: Protein maturation assay (WB, band C/(C+B)) in transfected HEK293 cells; format: cell-based; conditions: HEK293, 24 h; ARN23765 10 nM, VX-661 3 μM
Method: HEK293 cells were plated in 24-wells at around 80% of confluence and transfected with constructs coding for F508del-CFTR or mutants using JetPEI reagent (101000053, Polyplus Technology) following the manufacturer’s instructions. After 24 h, the correctors were added for a further 24 h. […] For binding site analysis experiments, the cells were kept either at 37 °C (Figure S8) or moved to 30 °C (Figure 9) during incubation with the selected correctors. VX-445 and corrector 3151 were mixed together as a control for maximal protein correction. DMSO (0.2%) was added to nontreated controls. After treatment, cells were lysed in RIPA buffer [50 mM tris-HCl pH 8, 150 mM NaCl, 1% NP40, 0.5% sodium deoxycolate, 0.1% SDS, 2.0 mM EDTA] and lysates were analyzed with WB, as described in the supplementary methods of the Supporting Information.

- F508del/R1070W channel activity (FLIPR) (F508del/R1070W-CFTR [1]): further enhanced
- F508del/R1070W protein maturation (F508del/R1070W-CFTR [2]): further enhanced
SMILES: CC(C)(CO)c1cc2cc(NC(=O)C3(c4ccc5c(c4)OC(F)(F)O5)CC3)c(F)cc2n1C[C@@H](O)CO [VX-661, tezacaftor, reference compound]
